This is an account of results in US20230295152A1 (SENDA BIOSCIENCES, INC., priority 2019, published 2023).

Molecules are shown by their SMILES. Some results are limits rather than exact numbers.

Data set [1] can be described thus: Hepatocyte Stability Assay, human. To be noted: cryopreserved hepatocytes in suspension; human hepatocytes; read-out: Human hepatocyte clearance. In kind it is in vitro ADME. As to the method: (§1) • Preparation of working solutions: 10 mM stock solutions of test compound and positive control were prepared in DMSO. In separate conical tubes, the 10 mM solution of test compound and the positive control were diluted to 100 μM by combining 198 μL of 50% acetonitrile/50% water and 2 μL of 10 mM stock.
(§2) Preparation of Hepatocytes: Incubation medium (William's E Medium supplemented with GlutaMAX) and hepatocyte thawing medium were placed in a 37° C. water bath and allowed warming for at least 15 minutes prior to use. A vial of cryopreserved hepatocytes was transferred from storage, ensuring that vials remained at cryogenic temperatures until thawing process ensued. Cells were thawed by placing the vial in a 37° C. water bath and gently shaking the vials for 2 minutes. After thawing was completed, vial was sprayed with 70% ethanol and transferred to a biosafety cabinet. Wide-bore pipette tip were used to transfer hepatocytes into 50 mL conical tube containing thawing medium. The 50 mL conical tube were placed into a centrifuge and spun at 100 g for 10 minutes. Upon completion of spin, thawing medium was aspirated and resuspended hepatocytes in enough incubation medium to yield ˜1.5×10^6 cells/mL. Using an AO/PI Staining, cells were counted and the viable cell density was determined. Cells with poor viability (<75% viability) were determined to be not acceptable for use. Cells were diluted with incubation medium to a working cell density of 0.5×10^6 viable cells/mL.
(§3) Procedure for Stability Determination: 198 μL of hepatocytes were pipetted into each wells of a 96-well non-coated plate. The plate was placed in the incubator to allow the hepatocytes to warm for 10 minutes. 2 μL of the 100 μM test compound or positive control solutions were pipetted into respective wells of the 96-well non-coated plate to start the reaction. The plate was returned to the incubator for the designed time points. Well contents was transferred in 25 μL aliquots at time points of 0, 15, 30, 60, 90 and 120 minutes. The aliquots were then mixed with 6 volumes (150 μL) of acetonitrile containing internal standard, IS (100 nM alprazolam, 200 nM caffeine and 100 nM tolbutamide) to terminate the reaction. The mixture was vortex for 5 minutes. Samples were centrifuged for 45 minutes at 3,220 g. An aliquot of 100 μL of the supernatant was diluted by 100 μL ultra-pure water, and the mixture was used for LC/MS/MS analysis. All incubations were performed in duplicate.
(§4) Data Analysis: All calculations were carried out using Microsoft Excel. Peak areas were determined from extracted ion chromatograms. In vitro half-life (t1/2) of parent compound was determined by regression analysis of the percent parent disappearance vs. time curve.
(§5) The in vitro half-life (in vitro t1/2) was determined from the slope value:
(§6) Conversion of the in vitro t1/2 (in min) into the in vitro intrinsic clearance (in vitro CLint, in μL/min/1×10^6 cells) was done using the following equation (mean of duplicate determinations):
(§7) V=incubation volume(0.2 mL);
(§8) N=number of hepatocytes per well(0.1×10^6 cells).
(§9) “+++” indicates a CLint value less than 20 mL/min/Kg, “++” indicates a CLint between 20 and 50 mL/min/Kg, and “+” indicates an CLint above 50 mL/min/Kg.

Data set [2] can be described thus: Hepatocyte Stability Assay, rat. Also: tested at 1 µM. In kind it is in vitro ADME. The settings on record: rat hepatocytes. The protocol: as §1, §2, §3, §4, §5, §6, §7, §8, §9

In the case of `O=c1c2cc(-c3ccc(Cl)cc3)nc(-c3cccnc3)c2ncn1C[C@@H](O)C(F)(F)F` (single isomer, unassigned) [185 enantiomer 1], the CLint scaled at 1 μM in data set [1] is less than 20 mL/min/kg. In addition, in data set [2], the Rat hepatocyte clearance result is “++ (“++” indicates a CLint between 20 and 50 mL/min/Kg)”.

In the case of `O=c1c2cc(-c3ccc(Cl)cc3)nc(-c3cccnc3)c2ncn1C[C@H](O)C(F)(F)F` (single isomer, unassigned) [185 enantiomer 2], in data set [1], the CLint scaled at 1 μM was less than 20 mL/min/kg. The Rat hepatocyte clearance result in data set [2] is “++ (“++” indicates a CLint between 20 and 50 mL/min/Kg)”.

Consider `C[C@@H](CO)n1cnc2c(-c3cncc(F)c3)nc(-c3ccc(OC(F)(F)F)cc3)cc2c1=O` [Compound 1, (S)-8-(5-fluoropyridin-3-yl)-3-(1-hydroxypropan-2-yl)-6-(4-(trifluoromethoxy)phenyl)pyrido[3,4-d]pyrimidin-4(3H)-one], for which the CLint scaled at 1 μM in data set [1] is less than 20 mL/min/kg. Besides, the Rat hepatocyte clearance entry in data set [2] was “++ (“++” indicates a CLint between 20 and 50 mL/min/Kg)”.

Regarding `C[C@@H](CO)n1cnc2c(-c3cccc(F)c3)nc(-c3ccc(C(F)(F)F)nc3)cc2c1=O` [Compound 8], the CLint scaled at 1 μM in data set [1] is less than 20 mL/min/kg. For the same compound, the Rat hepatocyte clearance result in data set [2] was “++ (“++” indicates a CLint between 20 and 50 mL/min/Kg)”.

As to `Cc1ccc(-c2cc3c(=O)n([C@@H](C)CO)cnc3c(-c3cccnc3)n2)cc1` [Compound 17, (S)-3-(1-hydroxypropan-2-yl)-8-(pyridin-3-yl)-6-(p-tolyl)pyrido[3,4-d]pyrimidin-4(3H)-one], in data set [1], the CLint scaled at 1 μM was in the range of 20 to 50 mL/min/kg. For the same compound, the Rat hepatocyte clearance entry in data set [2] is on record as “+ (“+” indicates an CLint above 50 mL/min/Kg)”.

Turning to `Cn1cc(-c2nc(-c3ccc(Cl)cc3)cc3c(=O)n(CC(C)(C)O)cnc23)cn1` [Compound 21], the CLint scaled at 1 μM in data set [1] is less than 20 mL/min/kg. In addition, the Rat hepatocyte clearance entry in data set [2] is reported as “+++ (“+++” indicates a CLint value less than 20 mL/min/Kg)”.

Turning to `C[C@@H](CO)n1cnc2c(-c3cccnc3)nc(-c3ccc(OC(F)(F)F)cc3)cc2c1=O` [Compound 22], the CLint scaled at 1 μM in data set [1] is less than 20 mL/min/kg. The Rat hepatocyte clearance result in data set [2] is “++ (“++” indicates a CLint between 20 and 50 mL/min/Kg)”.

In the case of `C[C@@H](n1cnc2c(-c3cnn(C)c3)nc(-c3ccc(Cl)cc3)cc2c1=O)C(C)(C)O` [Compound 31], in data set [1], the CLint scaled at 1 μM was less than 20 mL/min/kg. Also, the Rat hepatocyte clearance entry in data set [2] is “++ (“++” indicates a CLint between 20 and 50 mL/min/Kg)”.

For `C[C@@H](n1cnc2c(-c3cccnc3)nc(-c3ccc(Cl)cc3)cc2c1=O)C(C)(C)O` [Compound 33], the CLint scaled at 1 μM in data set [1] is less than 20 mL/min/kg. Besides, in data set [2], the Rat hepatocyte clearance result is “++ (“++” indicates a CLint between 20 and 50 mL/min/Kg)”.

`Cn1cc(-c2nc(-c3ccc(C4CC4)nc3)cc3c(=O)n(C[C@H](O)C(F)(F)F)cnc23)cn1` [Compound 136, (S)-6-(6-cyclopropylpyridin-3-yl)-8-(1-methyl-1H-pyrazol-4-yl)-3-(3,3,3-trifluoro-2-hydroxypropyl)pyrido[3,4-d]pyrimidin-4(3H)-one]: the CLint scaled at 1 μM in data set [1] was less than 20 mL/min/kg.

`O=c1c2cc(-c3ccc(C(F)(F)F)cn3)nc(-c3cccnc3)c2ncn1[C@H]1COC[C@@H]1O` [Compound 139, 3-((3S,4R)-4-hydroxytetrahydrofuran-3-yl)-8-(pyridin-3-yl)-6-(5-(trifluoromethyl)pyridin-2-yl)pyrido[3,4-d]pyrimidin-4(3H)-one]: in data set [1], the CLint scaled at 1 μM is less than 20 mL/min/kg.

On to `O=c1c2cc(-c3ccc(C(F)(F)F)cn3)nc(-c3cccnc3)c2ncn1[C@@H]1COC[C@H]1O` [Compound 140, 3-((3R,4S)-4-hydroxytetrahydrofuran-3-yl)-8-(pyridin-3-yl)-6-(5-(trifluoromethyl)pyridin-2-yl)pyrido[3,4-d]pyrimidin-4(3H)-one], for which the CLint scaled at 1 μM in data set [1] is less than 20 mL/min/kg.

Consider `C[C@H](O)Cn1cnc2c(-c3cnn(C)c3)nc(-c3ccc(C(F)(F)F)cn3)cc2c1=O` [Compound 142, (S)-3-(2-hydroxypropyl)-8-(1-methyl-1H-pyrazol-4-yl)-6-(5-(trifluoromethyl)pyridin-2-yl)pyrido[3,4-d]pyrimidin-4(3H)-one], for which the CLint scaled at 1 μM in data set [1] is less than 20 mL/min/kg.

Take `C[C@H](O)Cn1cnc2c(-c3cccnc3)nc(-c3ccc(C(F)(F)F)cn3)cc2c1=O` [Compound 143, (S)-3-(2-hydroxypropyl)-8-(pyridin-3-yl)-6-(5-(trifluoromethyl)pyridin-2-yl)pyrido[3,4-d]pyrimidin-4(3H)-one]: the CLint scaled at 1 μM in data set [1] is less than 20 mL/min/kg.

In the case of `C[C@@H](O)Cn1cnc2c(-c3cccnc3)nc(-c3ccc(C(F)(F)F)cn3)cc2c1=O` [Compound 144, (R)-3-(2-hydroxypropyl)-8-(pyridin-3-yl)-6-(5-(trifluoromethyl)pyridin-2-yl)pyrido[3,4-d]pyrimidin-4(3H)-one], the CLint scaled at 1 μM in data set [1] is less than 20 mL/min/kg.

As to `O=c1c2cc(-c3ccc(C(F)(F)F)cn3)nc(-c3cccnc3)c2ncn1[C@H]1COC[C@H]1O` [Compound 145, 3-((3S,4S)-4-hydroxytetrahydrofuran-3-yl)-8-(pyridin-3-yl)-6-(5-(trifluoromethyl)pyridin-2-yl)pyrido[3,4-d]pyrimidin-4(3H)-one], the CLint scaled at 1 μM in data set [1] is less than 20 mL/min/kg.

For `Cn1cc(-c2nc(-c3ccc(C(F)(F)F)cn3)cc3c(=O)n([C@H]4COC[C@H]4O)cnc23)cn1` [Compound 151, 3-((3S,4S)-4-hydroxytetrahydrofuran-3-yl)-8-(1-methyl-1H-pyrazol-4-yl)-6-(5-(trifluoromethyl)pyridin-2-yl)pyrido[3,4-d]pyrimidin-4(3H)-one], the CLint scaled at 1 μM in data set [1] was less than 20 mL/min/kg.

Regarding `O=c1c2cc(-c3ccc(Cl)cc3)nc(-c3cccnc3)c2ncn1[C@@H]1COC[C@H]1O` [Compound 152, 6-(4-chlorophenyl)-3-((3R,4S)-4-hydroxytetrahydrofuran-3-yl)-8-(pyridin-3-yl)pyrido[3,4-d]pyrimidin-4(3H)-one], the CLint scaled at 1 μM in data set [1] fell in the range of 20 to 50 mL/min/kg.

With `O=c1c2cc(-c3ccc(C(F)(F)F)cn3)nc(-c3cccnc3)c2ncn1C[C@@H](O)C(F)(F)F` [Compound 154, (R)-8-(pyridin-3-yl)-3-(3,3,3-trifluoro-2-hydroxypropyl)-6-(5-(trifluoromethyl)pyridin-2-yl)pyrido[3,4-d]pyrimidin-4(3H)-one], the CLint scaled at 1 μM in data set [1] was less than 20 mL/min/kg.

In the case of `CNC(=O)[C@H](C)n1cnc2c(-c3cccnc3)nc(-c3ccc(C(F)(F)F)nc3)cc2c1=O` [Compound 156, (S)—N-methyl-2-(4-oxo-8-(pyridin-3-yl)-6-(6-(trifluoromethyl)pyridin-3-yl)pyrido[3,4-d]pyrimidin-3(4H)-yl)propanamide], the CLint scaled at 1 μM in data set [1] is less than 20 mL/min/kg.

Regarding `CC(C)(O)Cn1cnc2c(-n3ccnc3)nc(-c3ccc(C(F)(F)F)cn3)cc2c1=O` [Compound 160, 3-(2-hydroxy-2-methylpropyl)-8-(1H-imidazol-1-yl)-6-(5-(trifluoromethyl)pyridin-2-yl)pyrido[3,4-d]pyrimidin-4(3H)-one], the CLint scaled at 1 μM in data set [1] is less than 20 mL/min/kg.

With `C[C@@H](CO)n1cnc2c(-n3ccnc3)nc(-c3ccc(C(F)(F)F)cn3)cc2c1=O` [Compound 162, (S)-3-(1-hydroxypropan-2-yl)-8-(1H-imidazol-1-yl)-6-(5-(trifluoromethyl)pyridin-2-yl)pyrido[3,4-d]pyrimidin-4(3H)-one], the CLint scaled at 1 μM in data set [1] was less than 20 mL/min/kg.

For the compound `C[C@@H](CO)n1cnc2c(-n3ccnc3)nc(-c3ccc(C(F)(F)F)nc3)cc2c1=O` [Compound 163, (S)-3-(1-hydroxypropan-2-yl)-8-(1H-imidazol-1-yl)-6-(6-(trifluoromethyl)pyridin-3-yl)pyrido[3,4-d]pyrimidin-4(3H)-one], the CLint scaled at 1 μM in data set [1] is less than 20 mL/min/kg.

Take `C[C@@H](CO)n1cnc2c(N3CCCCC3)nc(-c3ccc(Cl)cc3)cc2c1=O` [Compound 177, (S)-6-(4-chlorophenyl)-3-(1-hydroxypropan-2-yl)-8-(piperidin-1-yl)pyrido[3,4-d]pyrimidin-4(3H)-one]: the CLint scaled at 1 μM in data set [1] is 20 to 50 mL/min/kg.

Consider `Cc1nc(-c2cc3c(=O)n([C@@H](C)CO)cnc3c(-c3cccnc3)n2)cs1` [Compound 183, (S)-3-(1-hydroxypropan-2-yl)-6-(2-methylthiazol-4-yl)-8-(pyridin-3-yl)pyrido[3,4-d]pyrimidin-4(3H)-one], for which, in data set [1], the CLint scaled at 1 μM is less than 20 mL/min/kg.
